Reference: patent US12522587B2, “Cancer treatments targeting cancer stem cells” (Remedy Plan, Inc., priority 2018, dated 2026)

System: AGS human gastric adenocarcinoma cells
Experiment: Human microarray study (Affymetrix Clariom S) of treated AGS cells
Type: cell-based
Conditions: two days
Protocol: AGS human gastric adenocarcinoma cells were treated with compound I-1, or DMSO alone (as a negative control) for two days. After two days, RNA was isolated from compound I-1 treated cells and DMSO treated cells, in duplicate, and subjected to microarray analysis using AFFYMETRIX CLARIOM S microarrays. Data were represented as fold change relative to the compound I-1 treated cells, negative values represented genes that were on higher in compound I-1 treated cells than in DMSO treated cells, and positive values represented genes that were on higher in DMSO treated cells than in compound I-1 treated cells. Values were averaged for the duplicate samples. We included data for the genes whose expression was altered by more than 3 fold, either up or down, in response to compound I-1.
Negative numbers indicate fold upregulation upon drug treatment. Positive numbers indicate fold downregulation upon drug treatment. […] In addition, Chac1, PCK2, and SLC7A11 were all shown to have a tumor promoting activity and to be associated with the more dangerous and lethal forms of cancer, and these three genes were the three most strongly repressed genes measured in this analysis. There were other examples in the data that supported this model, but the overall model was that compound I-1 increased the expression of tumor suppressor genes, and decreased the expression of tumor promoting genes.

CCC(=O)N1CCc2cc(-c3ccc(C(=O)NCc4cccnc4)cc3)ccc21 [Compound I-1]
expression of tumor promoting genes (microarray, overall model): decreased
expression of tumor suppressor genes (microarray, overall model): increased
Fold Change ABHD4 (negative = upregulated): −15.57 fold
Fold Change ACAT2 (negative = upregulated): −5.41 fold
Fold Change ACSS2 (negative = upregulated): −8.4 fold
Fold Change AKR1B10 (negative = upregulated): −4.25 fold
Fold Change AKR1B15 (negative = upregulated): −3.05 fold
Fold Change AKR1C1 (negative = upregulated): −16.86 fold
Fold Change AKR1C2 (negative = upregulated): −6.95 fold
Fold Change AKR1C3 (negative = upregulated): −8.57 fold
Fold Change ANO6 (negative = upregulated): −3.15 fold
Fold Change ARHGEF3 (negative = upregulated): −6.93 fold
Fold Change ARRDC3 (negative = upregulated): −5.99 fold
Fold Change AVPI1 (negative = upregulated): −3.14 fold
Fold Change BCL2L11 (negative = upregulated): −4 fold
Fold Change BCL6 (negative = upregulated): −3.01 fold
Fold Change BHLHE40 (negative = upregulated): −7.94 fold
Fold Change CA5B (negative = upregulated): −4.1 fold
Fold Change CBFA2T2 (negative = upregulated): −3.24 fold
Fold Change CCNG2 (negative = upregulated): −3.58 fold
Fold Change CDA (negative = upregulated): −3.79 fold
Fold Change CDC42EP4 (negative = upregulated): −3.75 fold
Fold Change CDKN1A (negative = upregulated): −3.11 fold
Fold Change CNNM2 (negative = upregulated): −3.68 fold
Fold Change CREBRF (negative = upregulated): −5.55 fold
Fold Change CSF1 (negative = upregulated): −3.31 fold
Fold Change CXCL17 (negative = upregulated): −4.1 fold
Fold Change CYP51A1 (negative = upregulated): −4.74 fold
Fold Change DBP (negative = upregulated): −10.5 fold
Fold Change DHCR7 (negative = upregulated): −8.77 fold
Fold Change DHCR24 (negative = upregulated): −3.44 fold
Fold Change DNAJB4 (negative = upregulated): −3.09 fold
Fold Change DNAJB5 (negative = upregulated): −3.84 fold
Fold Change DNMBP (negative = upregulated): −4 fold
Fold Change DUSP10 (negative = upregulated): −27.17 fold
Fold Change EBP (negative = upregulated): −3.69 fold
Fold Change EDN2 (negative = upregulated): −3 fold
Fold Change EFNA1 (negative = upregulated): −5.15 fold
Fold Change EPHA4 (negative = upregulated): −4.56 fold
Fold Change EYA3 (negative = upregulated): −3.81 fold
Fold Change F2RL1 (negative = upregulated): −3.37 fold
Fold Change FAM46A (negative = upregulated): −4.76 fold
Fold Change FAM46C (negative = upregulated): −3.6 fold
Fold Change FAM160A1 (negative = upregulated): −3.86 fold
Fold Change FASN (negative = upregulated): −5.82 fold
Fold Change FDFT1 (negative = upregulated): −7.56 fold
Fold Change FGA (negative = upregulated): −13.67 fold
Fold Change FGG (negative = upregulated): −4.11 fold
Fold Change G6PD (negative = upregulated): −3.11 fold
Fold Change GALM (negative = upregulated): −3.17 fold
Fold Change GATSL2 (negative = upregulated): −3.58 fold
Fold Change GDF15 (negative = upregulated): −4.83 fold
Fold Change GNE (negative = upregulated): −3.21 fold
Fold Change GRHL3 (negative = upregulated): −4.96 fold
Fold Change HHLA2 (negative = upregulated): −3.59 fold
Fold Change HK1 (negative = upregulated): −6.34 fold
Fold Change HMGCR (negative = upregulated): −4.8 fold
Fold Change HMGCS1 (negative = upregulated): −9.9 fold
Fold Change HMOX1 (negative = upregulated): −14.23 fold
Fold Change HSPA1A; HSPA1B (negative = upregulated): −5.34 fold
Fold Change HSPA1B; HSPA1A (negative = upregulated): −5.04 fold
Fold Change HSPB8 (negative = upregulated): −4.71 fold
Fold Change IDI1 (negative = upregulated): −5.77 fold
Fold Change IL1RN (negative = upregulated): −4.04 fold
Fold Change ILF2 (negative = upregulated): −3.2 fold
Fold Change INPP5D (negative = upregulated): −3.12 fold
Fold Change INSIG1 (negative = upregulated): −8.5 fold
Fold Change JAG1 (negative = upregulated): −3.31 fold
Fold Change JAK2 (negative = upregulated): −3.6 fold
Fold Change KAT6B (negative = upregulated): −3.77 fold
Fold Change LEMD1 (negative = upregulated): −3.16 fold
Fold Change LIPG (negative = upregulated): −3.65 fold
Fold Change LNX1 (negative = upregulated): −4.32 fold
Fold Change LPIN1; MIR548S (negative = upregulated): −3.22 fold
Fold Change LY6D (negative = upregulated): −4.81 fold
Fold Change LYPD3 (negative = upregulated): −4.09 fold
Fold Change MICA (negative = upregulated): −3.66 fold
Fold Change MICB (negative = upregulated): −12.71 fold
Fold Change MID1 (negative = upregulated): −3.25 fold
Fold Change MSMO1 (negative = upregulated): −9.47 fold
Fold Change MT1E (negative = upregulated): −3.03 fold
Fold Change MT1L (negative = upregulated): −3 fold
Fold Change MTSS1L (negative = upregulated): −3.41 fold
Fold Change MVD (negative = upregulated): −3.82 fold
Fold Change MVK (negative = upregulated): −3.11 fold
Fold Change MXD1 (negative = upregulated): −6.23 fold
Fold Change MYLIP; MIR4639 (negative = upregulated): −3.88 fold
Fold Change NEU1 (negative = upregulated): −4.89 fold
Fold Change NEURL3 (negative = upregulated): −3.41 fold
Fold Change NFAT5 (negative = upregulated): −3.32 fold
Fold Change NFKBIA (negative = upregulated): −4.97 fold
Fold Change NR1D1 (negative = upregulated): −23.3 fold
Fold Change NR1D2 (negative = upregulated): −3.01 fold
Fold Change NSDHL (negative = upregulated): −3.29 fold
Fold Change OCLM (negative = upregulated): −3.22 fold
Fold Change OSGIN1 (negative = upregulated): −3.63 fold
Fold Change OTUD1 (negative = upregulated): −3.29 fold
Fold Change OVOL1 (negative = upregulated): −4.01 fold
Fold Change PADI1 (negative = upregulated): −3.48 fold
Fold Change PCDH7 (negative = upregulated): −3.81 fold
Fold Change PDGFRL (negative = upregulated): −6.65 fold
Fold Change PERI; MIR6883 (negative = upregulated): −16.75 fold
Fold Change PGM2L1 (negative = upregulated): −3.76 fold
Fold Change PIM1 (negative = upregulated): −3.7 fold
Fold Change PLK2 (negative = upregulated): −3.13 fold
Fold Change PLPP3 (negative = upregulated): −3.74 fold
Fold Change POLR2L (negative = upregulated): −3.14 fold
Fold Change PRDM1 (negative = upregulated): −3.06 fold
Fold Change PRSS22 (negative = upregulated): −4.6 fold
Fold Change PSCA (negative = upregulated): −3.18 fold
Fold Change PVRL1 (negative = upregulated): −3.57 fold
Fold Change PVRL4 (negative = upregulated): −3.32 fold
Fold Change RAB30 (negative = upregulated): −3.82 fold
Fold Change RASSF5 (negative = upregulated): −5.9 fold
Fold Change RBM26 (negative = upregulated): −6.5 fold
Fold Change REG1A (negative = upregulated): −3.05 fold
Fold Change RHOV (negative = upregulated): −4.66 fold
Fold Change RND1 (negative = upregulated): −5.3 fold
Fold Change RRAGC (negative = upregulated): −3.01 fold
Fold Change RSRP1 (negative = upregulated): −3.61 fold
Fold Change RYBP (negative = upregulated): −3.38 fold
Fold Change SAT2 (negative = upregulated): −3.99 fold
Fold Change SC5D (negative = upregulated): −3.39 fold
Fold Change SEC24D (negative = upregulated): −3.84 fold
Fold Change SLC20A1 (negative = upregulated): −4.87 fold
Fold Change SLC25A25 (negative = upregulated): −3.73 fold
Fold Change SLC30A1 (negative = upregulated): −4.84 fold
Fold Change SLN (negative = upregulated): −5.63 fold
Fold Change SPATA5 (negative = upregulated): −3.26 fold
Fold Change SQLE (negative = upregulated): −4.32 fold
Fold Change STK17B (negative = upregulated): −6.26 fold
Fold Change SUSD6 (negative = upregulated): −3.48 fold
Fold Change TAF5 (negative = upregulated): −3.41 fold
Fold Change TEF (negative = upregulated): −6.45 fold
Fold Change TGFBR3 (negative = upregulated): −3.86 fold
Fold Change TIAL1 (negative = upregulated): −4.62 fold
Fold Change TKT (negative = upregulated): −3.56 fold
Fold Change TMEM2 (negative = upregulated): −4.49 fold
Fold Change TMEM263 (negative = upregulated): −3.01 fold
Fold Change TMPRSS2 (negative = upregulated): −5.06 fold
Fold Change TNFSF13B (negative = upregulated): −4.12 fold
Fold Change TRIM24 (negative = upregulated): −3.01 fold
Fold Change UGDH (negative = upregulated): −4.16 fold
Fold Change YBX1 (negative = upregulated): −3.62 fold
Fold Change ZNF114 (negative = upregulated): −7.07 fold
Fold Change ZNRF3 (negative = upregulated): −3.14 fold
Fold Change ZSWIM6 (negative = upregulated): −3.28 fold
Fold Change SQSTM1 (negative = upregulated, first SQSTM1 entry): −4.27 fold
Fold Change SQSTM1 (negative = upregulated, second SQSTM1 entry): −3.5 fold
Fold Change AARS (positive = downregulated): 3.12 fold
Fold Change AJUBA (positive = downregulated): 8.65 fold
Fold Change AKTIP (positive = downregulated): 3.39 fold
Fold Change ARHGEF2 (positive = downregulated): 4.73 fold
Fold Change ASNS (positive = downregulated): 12.78 fold
Fold Change ASS1 (positive = downregulated): 7.34 fold
Fold Change ATF5; MIR4751 (positive = downregulated): 6.55 fold
Fold Change BRCA1 (positive = downregulated): 4.22 fold
Fold Change BTC (positive = downregulated): 5.04 fold
Fold Change C4BPB (positive = downregulated): 3.69 fold
Fold Change C5orf28 (positive = downregulated): 4.4 fold
Fold Change C12orf4 (positive = downregulated): 3.45 fold
Fold Change C14orf79 (positive = downregulated): 3.68 fold
Fold Change C17orf80 (positive = downregulated): 4.3 fold
Fold Change CARS (positive = downregulated): 5.53 fold
Fold Change CCDC125 (positive = downregulated): 3.31 fold
Fold Change CCDC138 (positive = downregulated): 3.07 fold
Fold Change CDC7 (positive = downregulated): 3.01 fold
Fold Change CDH11 (positive = downregulated): 4.69 fold
Fold Change CDX2 (positive = downregulated): 3.07 fold
